Measured values from ChEMBL document CHEMBL4622974, “Leveraging an Open Science Drug Discovery Model to Develop CNS-Penetrant ALK2 Inhibitors for the Treatment of Diffuse Intrinsic Pontine Glioma” (J Med Chem, 2020).

Key:
[1] = biological target: T1, Activin receptor type-1 (Homo sapiens, UniProt Q04771); experiment: Competitive displacement of PBI-6908 from nanoluciferase-fused ALK2 (unknown origin) expressed in HEK293 cells incubated for 2 hrs by NanoBRET NanoGlo substrate based NanoBRET assay; assay type: cell-based
T1 sequence (Q04771 whole entry): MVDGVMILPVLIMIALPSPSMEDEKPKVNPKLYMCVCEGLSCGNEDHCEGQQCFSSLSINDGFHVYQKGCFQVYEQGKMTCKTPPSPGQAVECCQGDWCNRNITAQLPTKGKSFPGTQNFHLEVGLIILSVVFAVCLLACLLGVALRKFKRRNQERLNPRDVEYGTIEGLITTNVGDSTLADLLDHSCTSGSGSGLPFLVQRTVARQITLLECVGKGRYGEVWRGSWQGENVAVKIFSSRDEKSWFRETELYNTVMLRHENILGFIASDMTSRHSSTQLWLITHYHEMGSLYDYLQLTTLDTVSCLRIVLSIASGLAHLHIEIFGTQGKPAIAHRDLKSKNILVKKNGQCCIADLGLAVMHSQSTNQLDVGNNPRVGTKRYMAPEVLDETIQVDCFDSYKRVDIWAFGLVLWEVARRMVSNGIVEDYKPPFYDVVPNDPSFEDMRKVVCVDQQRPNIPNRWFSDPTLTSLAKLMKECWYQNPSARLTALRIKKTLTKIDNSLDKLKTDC

[2] = Apparent permeability across basolateral to apical side in human Caco2 cells at 5 uM after 120 mins by LC-MS/MS analysis; assay type: ADME, cell-based; settings: Caco-2
[3] = Apparent permeability across apical to basolateral side in human Caco2 cells at 5 uM after 120 mins by LC-MS/MS analysis; settings: Caco-2
[4] = Selectivity ratio of IC50 for human ALK4 to IC50 for human ALK2; assay type: ADME
[5] = Efflux ratio of apparent permeability across basolateral to apical over apical to basolateral side in human Caco2 cells at 5 uM incubated for 2 hrs by LC/MS/MS analysis; settings: Caco-2
[6] = Volume of distribution at steady state in CB17 SCID mouse at 2 mg/kg, iv after 0.25 to 24 hrs by LC/MS/MS method; assay type: ADME, organism-based; settings: in vivo, read-out: Vdss
[7] = biological target: T2, TGF-beta receptor type-1 (Homo sapiens, UniProt P36897); experiment: Inhibition of recombinant human ALK5 expressed in HEK293 cells transfected with CAGA-luciferase and Renilla luciferase reporter after 24 hrs by dual luciferase reporter assay; assay type: cell-based
T2 sequence (P36897 whole entry): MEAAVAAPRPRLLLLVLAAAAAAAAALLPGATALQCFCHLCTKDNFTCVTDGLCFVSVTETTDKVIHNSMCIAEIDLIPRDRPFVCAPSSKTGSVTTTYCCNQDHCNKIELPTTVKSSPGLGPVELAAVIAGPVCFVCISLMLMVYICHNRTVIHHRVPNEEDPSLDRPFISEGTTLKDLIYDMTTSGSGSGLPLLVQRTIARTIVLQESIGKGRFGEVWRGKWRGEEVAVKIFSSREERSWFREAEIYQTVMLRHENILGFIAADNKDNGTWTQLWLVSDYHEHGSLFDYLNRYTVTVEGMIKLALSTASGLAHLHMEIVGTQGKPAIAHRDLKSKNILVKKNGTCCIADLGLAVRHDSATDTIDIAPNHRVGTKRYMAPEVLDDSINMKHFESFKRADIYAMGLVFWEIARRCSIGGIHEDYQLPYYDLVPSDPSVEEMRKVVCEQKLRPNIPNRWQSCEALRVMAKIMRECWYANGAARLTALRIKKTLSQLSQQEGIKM

[8] = Toxicity in CB17 SCID mouse assessed as induction of adverse effect at 10 mg/kg, po; assay type: organism-based; settings: in vivo
[9] = Toxicity in CB17 SCID mouse assessed as induction of adverse effect at 2 mg/kg, iv; assay type: organism-based; settings: in vivo
[10] = Half life in CB17 SCID mouse at 10 mg/kg, po after 0.25 to 24 hrs by LC/MS/MS method; assay type: ADME, organism-based; settings: in vivo
[11] = Oral bioavailability in CB17 SCID mouse at 10 mg/kg after 0.25 to 24 hrs by LC/MS/MS method; assay type: ADME, organism-based; settings: in vivo
[12] = Stability in CD1 mouse liver microsomes assessed as compound remaining at 1 uM incubated for 60 mins by LC/MS analysis; assay type: ADME, Microsome; settings: read-out: Stability
[13] = Half life in CD1 mouse liver microsomes at 1 uM incubated for 60 mins by LC/MS analysis; assay type: ADME, Microsome
[14] = AUCinfinity in CB17 SCID mouse at 10 mg/kg, po after 0.25 to 24 hrs by LC/MS/MS method; assay type: ADME, organism-based; parameters: dose 10 mg/kg, time infinity, route oral; settings: in vivo
[15] = biological target: Voltage-gated inwardly rectifying potassium channel KCNH2 (Homo sapiens, UniProt Q12809); experiment: Inhibition of human ERG expressed in HEK293 cells after 5 mins by IonWorks barracuda patch clamp method; assay type: cell-based
Chain of Voltage-gated inwardly rectifying potassium channel KCNH2 (Q12809 whole entry): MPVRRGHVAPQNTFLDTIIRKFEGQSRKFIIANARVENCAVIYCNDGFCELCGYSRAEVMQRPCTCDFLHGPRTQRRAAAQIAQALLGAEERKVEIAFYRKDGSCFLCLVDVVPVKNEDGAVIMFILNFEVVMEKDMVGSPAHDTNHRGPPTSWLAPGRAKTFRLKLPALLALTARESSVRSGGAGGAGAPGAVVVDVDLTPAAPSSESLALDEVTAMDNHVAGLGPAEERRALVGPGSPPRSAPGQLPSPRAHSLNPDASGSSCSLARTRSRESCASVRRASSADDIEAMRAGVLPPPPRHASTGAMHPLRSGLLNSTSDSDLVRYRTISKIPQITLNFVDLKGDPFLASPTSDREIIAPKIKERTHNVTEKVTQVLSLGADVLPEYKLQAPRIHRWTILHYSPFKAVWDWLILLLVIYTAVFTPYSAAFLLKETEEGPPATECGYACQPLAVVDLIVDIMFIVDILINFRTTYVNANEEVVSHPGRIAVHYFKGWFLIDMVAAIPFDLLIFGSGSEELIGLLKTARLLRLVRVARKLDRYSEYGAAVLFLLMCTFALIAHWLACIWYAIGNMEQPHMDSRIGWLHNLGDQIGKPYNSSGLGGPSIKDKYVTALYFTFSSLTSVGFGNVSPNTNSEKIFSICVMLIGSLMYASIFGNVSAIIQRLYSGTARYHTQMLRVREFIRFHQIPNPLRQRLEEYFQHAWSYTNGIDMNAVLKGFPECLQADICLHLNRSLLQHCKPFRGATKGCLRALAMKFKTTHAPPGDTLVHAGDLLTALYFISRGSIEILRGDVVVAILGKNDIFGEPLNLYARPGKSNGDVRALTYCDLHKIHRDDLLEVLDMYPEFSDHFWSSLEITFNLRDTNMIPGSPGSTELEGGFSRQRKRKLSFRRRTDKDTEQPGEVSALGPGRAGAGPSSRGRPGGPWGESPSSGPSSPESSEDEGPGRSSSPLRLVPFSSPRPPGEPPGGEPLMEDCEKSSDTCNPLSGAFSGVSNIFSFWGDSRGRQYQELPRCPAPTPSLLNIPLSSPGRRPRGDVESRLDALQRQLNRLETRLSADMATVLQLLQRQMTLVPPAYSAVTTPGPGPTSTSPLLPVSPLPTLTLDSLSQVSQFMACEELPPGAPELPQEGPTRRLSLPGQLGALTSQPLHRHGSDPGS

[16] = Clearance in CB17 SCID mouse at 2 mg/kg, iv after 0.25 to 24 hrs by LC/MS/MS method; assay type: ADME, organism-based; settings: in vivo
[17] = Half life in human liver microsomes at 1 uM incubated for 60 mins by LC/MS analysis; assay type: ADME, Microsome
[18] = biological target: T3, Activin receptor type-1B (Homo sapiens, UniProt P36896); experiment: Inhibition of human ALK4 using casein as substrate in presence of [gamma-33P]-ATP by radiometric hotspot assay; assay type: ADME
T3 sequence (P36896 whole entry): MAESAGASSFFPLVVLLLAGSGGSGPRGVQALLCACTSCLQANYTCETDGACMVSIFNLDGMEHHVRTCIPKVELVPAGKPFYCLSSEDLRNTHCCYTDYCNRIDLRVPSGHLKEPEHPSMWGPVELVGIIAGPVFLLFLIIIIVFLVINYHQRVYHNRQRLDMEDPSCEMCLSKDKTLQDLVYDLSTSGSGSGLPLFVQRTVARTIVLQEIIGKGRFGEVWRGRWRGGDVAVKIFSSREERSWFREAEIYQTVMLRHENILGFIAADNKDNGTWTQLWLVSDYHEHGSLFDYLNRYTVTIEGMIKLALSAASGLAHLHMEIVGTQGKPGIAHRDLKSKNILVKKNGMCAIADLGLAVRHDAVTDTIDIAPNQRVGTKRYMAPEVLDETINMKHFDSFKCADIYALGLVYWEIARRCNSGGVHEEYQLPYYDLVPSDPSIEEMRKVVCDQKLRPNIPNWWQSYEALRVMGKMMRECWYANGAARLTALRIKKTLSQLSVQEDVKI

[19] = Cmax in CB17 SCID mouse at 10 mg/kg, po after 0.25 to 24 hrs by LC/MS/MS method; assay type: ADME, organism-based; parameters: dose 10 mg/kg, route oral; settings: in vivo
[20] = Stability in human liver microsomes assessed as compound remaining at 1 uM incubated for 60 mins by LC/MS analysis; assay type: ADME, Microsome; settings: read-out: Stability
[21] = biological target: T2, TGF-beta receptor type-1; experiment: Inhibition of human ALK5 using casein as substrate in presence of [gamma-33P]-ATP by radiometric hotspot assay; assay type: ADME
[22] = biological target: T1, Activin receptor type-1; experiment: Inhibition of human ALK2 using casein as substrate in presence of [gamma-33P]-ATP by radiometric hotspot assay

Row | SMILES | IC50 [1] | IC50 [7] | IC50 [15] | IC50 [21] | IC50 [22] | other results
1 | COc1cc(-c2cncc(-c3ccc(N4CCN(S(C)(=O)=O)CC4)cc3)c2C)cc(OC)c1OC | 0.059 µM | 6.39 µM | > 50 µM | 1.98 µM | 0.029 µM | Papp B→A at 2 h, 5 µM [2]: 33.8 ×10⁻⁶ cm/s; Papp A→B at 2 h, 5 µM [3]: 34.5 ×10⁻⁶ cm/s; Ratio IC50 [4]: 39; efflux ratio at 2 h, 5 µM [5]: 1; Vd [6]: 0.48 L/kg; Activity [8]: Non-Toxic; Activity [9]: Non-Toxic; half-life [10]: 0.8 h; bioavailability [11]: 7%; remaining at 1 h, 1 µM [12]: 100%; half-life at 1 µM [13]: > 1 h; AUC(0-inf) [14]: 2.97 µM·h; clearance [16]: 7.9 mL/min/kg; half-life at 1 µM [17]: > 1 h; IC50 [18]: 1.13 µM; Cmax [19]: 1.43 µM; remaining at 1 h, 1 µM [20]: 83.6%
2 | COc1cc(-c2cncc(-c3ccc(OC4CCNCC4)cc3)c2C)cc(OC)c1OC | 0.031 µM | 1.91 µM | 8.1 µM | 2.85 µM | 0.006 µM | Papp B→A at 2 h, 5 µM [2]: 9.4 ×10⁻⁶ cm/s; Papp A→B at 2 h, 5 µM [3]: 4.1 ×10⁻⁶ cm/s; Ratio IC50 [4]: 227; efflux ratio at 2 h, 5 µM [5]: 2.3; Vd [6]: 2.23 L/kg; Activity [8]: Non-Toxic; Activity [9]: Non-Toxic; half-life [10]: 7.7 h; bioavailability [11]: 96%; remaining at 1 h, 1 µM [12]: 39.3%; half-life at 1 µM [13]: > 1 h; AUC(0-inf) [14]: 65.8 µM·h; clearance [16]: 6 mL/min/kg; half-life at 1 µM [17]: > 1 h; IC50 [18]: 1.36 µM; Cmax [19]: 4.71 µM; remaining at 1 h, 1 µM [20]: 62.1%
3 | CCc1c(-c2ccc(N3CCNCC3)cc2)cncc1-c1cc(OC)c(OC)c(OC)c1 | 0.589 µM | > 5 µM |  | > 5 µM | 0.181 µM | 
4 | COc1cc(-c2cncc(-c3ccc(N4CCN(C(C)=O)CC4)cc3)c2C)cc(OC)c1OC | 0.267 µM | > 5 µM |  | 2.52 µM | 0.022 µM | 
5 | COc1cc(-c2cncc(-c3ccc(N4CCNCC4)cc3)c2OC)cc(OC)c1OC | 0.233 µM | > 5 µM |  | > 5 µM | 0.103 µM | 
6 | COc1cc(-c2cncc(-c3ccc(N4CCNCC4)cc3)c2C2CC2)cc(OC)c1OC | 0.159 µM | > 5 µM |  | 4.66 µM | 0.042 µM | 
7 | COc1cc(-c2cncc(-c3ccc(C4CCNCC4)cc3)c2C)cc(OC)c1OC | 0.054 µM | 3.42 µM |  | 1.75 µM | 0.009 µM | 
8 | COc1cc(-c2cncc(-c3ccc(N4CCN(C(C)C)CC4)cc3)c2C)cc(OC)c1OC | 0.073 µM | 1.82 µM | 3.1 µM | 2.24 µM | 0.007 µM | 
9 | COc1cc(-c2cncc(-c3ccc(C4=CCN(C)CC4)cc3)c2C)cc(OC)c1OC | 0.102 µM | 7.8 µM |  | 2.52 µM | 0.014 µM | 
10 | COc1cc(-c2cncc(-c3ccc(N4C[C@@H](C)N[C@@H](C)C4)cc3)c2C)cc(OC)c1OC | 0.04 µM | 1.43 µM | 5.9 µM | 1.05 µM | 0.008 µM | 
11 | COc1cc(-c2cncc(-c3ccc(N4CCNCC4)cc3)c2C#N)cc(OC)c1OC | 0.015 µM | 0.679 µM | 6 µM | 0.731 µM | 0.003 µM | Ratio IC50 [4]: 86; IC50 [18]: 0.257 µM
12 | COc1cc(-c2cncc(-c3ccc(N4CCS(=O)(=O)CC4)cc3)c2C)cc(OC)c1OC | 0.169 µM | > 5 µM |  | 1.23 µM | 0.016 µM | 
13 | COc1cc(-c2cncc(-c3ccc(N4CCN(C)CC4)cc3)c2C)cc(OC)c1OC | 0.056 µM | > 5 µM |  | 4.85 µM | 0.009 µM | 
